Data reported in publication PMC10294875, “Ether Derivatives of Naringenin and Their Oximes as Factors Modulating Bacterial Adhesion” (Antibiotics, 2023).
≈ marks a conversion by molar mass, not a printed value.

Columns and labels:
3T3-L1 cell line = assay: SRB assay, antiproliferative activity against 3T3-L1; format: cell-based, mouse; conditions: for IC50: Mus musculus; for cytotoxic / antiproliferative effect against 3T3-L1 (in words): SRB, tested concentration range 1–100 µg/mL
Protocol: (§1) The human adenocarcinoma cell line, HT-29 (ATCC HTB-38), was cultured in αMEM medium (IITD PAN) supplemented with 10% fetal bovine serum, FBS (Sigma-Aldrich, Taufkirchen, Germany), 100 U/mL penicillin, 100 µg/mL streptomycin antibiotic solution (Sigma-Aldrich, Taufkirchen, Germany), and 2 mM glutamine solution (Sigma-Aldrich, Taufkirchen, Germany). Cells from less than 20 passages were used for the study. In turn, preadipocytes from mouse embryos with the morphology of fibroblast cells, line 3T3-L1 (ATCC CL-173), were cultured in DMEM high-glucose medium (Life Technologies Corporation, Carlsbad, CA, USA) with the same supplements as above. Cells from less than 14 passages were used for the study. Both tested cell lines were grown at 37 °C in 5% CO2.
(§2) The effect of O-alkyl derivatives of naringenin and their oximes on eukaryotic cells was checked using a slightly modified SRB test described earlier. Firstly, HT-29 (1 × 10^5 cells/mL) and 3T3-L1 (5 × 10^4 cells/mL) cell lines were incubated in adherent microtiter plates under the conditions described above. The cells were then treated for 2 h with the tested compounds 1a–10a and 1b–10b at concentrations of 1, 5, 10, 25, 50, 75, and 100 µg/mL each. After this time, the medium was removed and replaced with one containing 50% (wt/vol) trichloroacetic acid (TCA; Sigma-Aldrich, Taufkirchen, Germany). Following 1 h of incubation at 4 °C, the plate was rinsed with water, and then an acidic solution of 0.4% sulforhodamine B (SRB) (Sigma-Aldrich, Taufkirchen, Germany), was added to the dried wells and incubated in the dark for half an hour. At the end of this time, the SRB solution was replaced by 1% (vol/vol) acetic acid, and the stained protein precipitate was dissolved in 10 mM Tris base solution (pH 10.5). Absorbance was measured at 560 nm in a plate reader (GloMax Discover Microplate Reader, Promega).
(§3) The cytotoxic effect of O-alkyl derivatives of naringenin and their oximes on eukaryotic cells was expressed as the concentration of the tested compounds at which 50% growth inhibition of the tested cell lines was observed. Values were presented in the form of the survival index (SI)–IC50. All determinations were repeated in three independent experiments, each performed in three technical replicates. Moreover, the effect of DMSO (Sigma-Aldrich, Taufkirchen, Germany), the solvent present in all the initial solutions of the tested compounds, on the growth of the cell lines used in the study was also verified.

HT-29 cell line = assay: SRB assay, antiproliferative activity against HT-29; format: cell-based, human; conditions: for IC50: Homo sapiens; for cytotoxic / antiproliferative effect against HT-29 (in words): SRB, tested concentration range 1–100 µg/mL
Protocol: as §1, §2, §3

[1] = system: Enterococcus faecalis (ATCC 29212); assay: Adhesion assay, static conditions: E. faecalis to 3T3-L1 cell line; format: cell-based
Protocol: (§4) The study used two reference strains, Escherichia coli K12 (ATCC 10798) and Enterococcus faecalis (ATCC 29212), obtained from the American Type Culture Collection. Both strains were stored in trypticase soy broth (TSB; OXOID, Basingstoke, UK) with the addition of 30% glycerol at −70 °C in the museum resources of the Department of Microbiology at the Wroclaw Medical University.
(§5) For studies determining the interaction of bacteria with eukaryotic cells, suspensions of the tested strains were prepared in Luria broth (LB, Becton, Dickinson and Company, USA) medium with a bacterial density of 6 × 10^8 CFU/mL.
(§6) The adhesion ability of the tested bacterial strains to HT-29 and 3T3-L1 cell lines was determined by an in vitro adhesion assay as described previously. Eukaryotic cells were infected with prokaryotic cells in the presence of the examined compounds in pre-selected concentrations at an MOI (multiplicity of infection) ratio of 50. Cells were exposed to the tested strains and compounds for 2 h. After this time, unbound bacteria were removed by washing with PBS (Life Technologies Corporation, Carlsbad, CA, USA). The lysates acquired by cell lysis (0.5% Triton X-100 in LB): 90 min, 37 °C, 5% CO2 atmosphere, were then seeded onto TSA and MC media for E. faecalis and E. coli, respectively. The assays were performed in at least three independent experiments (cells from subsequent passages), each in triplicate. A control without tested compounds was set for each strain.

[2] = system: Escherichia coli K12 (ATCC 10798); assay: Adhesion assay, static conditions: E. coli to 3T3-L1 cell line; format: cell-based
Protocol: as §4, §5, §6

[3] = system: Escherichia coli K12 (ATCC 10798); assay: Adhesion assay, static conditions: E. coli to HT-29 cell line; format: cell-based
Protocol: as §4, §5, §6

[4] = 2 h incubation, SRB assay, 3T3-L1
[5] = 2 h incubation, SRB assay, HT-29

| Structure (SMILES) | IC50 (3T3-L1 cell line; [4]) | cytotoxic / antiproliferative effect against 3T3-L1 (in words) (3T3-L1 cell line) | IC50 (HT-29 cell line; [5]) | cytotoxic / antiproliferative effect against HT-29 (in words) (HT-29 cell line) | also measured |
| --- | --- | --- | --- | --- | --- |
| CCCCCCCCCOc1ccc([C@@H]2CC(=O)c3c(O)cc(OCCCCCCCCC)cc3O2)cc1 [Compound 8a, 7,4’-di-O-nonylnaringenin] | > 100 µg/mL | no effect | > 100 µg/mL | no effect |  |
| CCCCCCCCOc1cc(O)c2c(c1)O[C@H](c1ccc(O)cc1)CC2=NO [Compound 5b, 7-O-octylnaringenin oxime] | 49.9 µg/mL (≈ 125 µM) |  | 49.8 µg/mL (≈ 125 µM) | cytotoxic effects |  |
| CCCCCCOc1ccc([C@@H]2CC(=NO)c3c(O)cc(OCCCCCC)cc3O2)cc1 [Compound 2b, 7,4’-di-O-hexylnaringenin oxime] | > 100 µg/mL |  | > 100 µg/mL |  |  |
| CCCCCCCCCOc1cc(O)c2c(c1)O[C@H](c1ccc(O)cc1)CC2=NO [Compound 7b, 7-O-nonylnaringenin oxime] | 41.6 µg/mL (≈ 101 µM) |  | 57.8 µg/mL (≈ 140 µM) | cytotoxic effects | effect on adhesion of E. faecalis to 3T3-L1 (in words) [1]: often actually limited the attachment |
| CCCCCCCCCCCOc1cc(O)c2c(c1)O[C@H](c1ccc(O)cc1)CC2=O [Compound 9a, 7-O-undecylnaringenin] | 80.6 µg/mL (≈ 189 µM) | cytotoxic activity | > 100 µg/mL |  | effect on adhesion of E. faecalis to 3T3-L1 (in words) [1]: often actually limited the attachment |
| CCCCCCCOc1cc(O)c2c(c1)O[C@H](c1ccc(O)cc1)CC2=O [Compound 3a, 7-O-heptylnaringenin] | 25.6 µg/mL (≈ 69 µM) | cytotoxic activity | 28.7 µg/mL (≈ 77.5 µM) | antiproliferative activity |  |
| ON=C1C[C@@H](c2ccc(O)cc2)Oc2cc(O)cc(O)c21 [NGOX, naringenin oxime, reference compound] |  |  |  |  | IC50 3T3-L1 (3T3-L1 cell line; [4]): >100 µg/mL; IC50 HT-29 (HT-29 cell line; [5]): >100 µg/mL |
| CCCCCCCOc1cc(O)c2c(c1)O[C@H](c1ccc(O)cc1)CC2=NO [Compound 3b, 7-O-heptylnaringenin oxime] | 32.1 µg/mL (≈ 83.3 µM) |  | 29.1 µg/mL (≈ 75.6 µM) | cytotoxic effects |  |
| CCCCCCOc1cc(O)c2c(c1)O[C@H](c1ccc(O)cc1)CC2=O [Compound 1a, 7-O-hexylnaringenin] | 25.8 µg/mL (≈ 72.4 µM) | cytotoxic activity | 25.4 µg/mL (≈ 71.2 µM) | antiproliferative activity | IC50 lower than compound 7a (ratio) (HT-29 cell line; HT-29, 1a vs 7a): 1.8 times |
| CCCCCCOc1cc(O)c2c(c1)O[C@H](c1ccc(O)cc1)CC2=NO [Compound 1b, 7-O-hexylnaringenin oxime] | 35 µg/mL (≈ 94.2 µM) |  | 38.4 µg/mL (≈ 103 µM) | cytotoxic effects | attachment of E. coli to 3T3-L1 decreased to ([2]; 1 µg/mL): 63%; adherence of E. coli to 3T3-L1 ([2]; 25 µg/mL): practically not observed |
| CCCCCCCCOc1ccc([C@@H]2CC(=O)c3c(O)cc(OCCCCCCCC)cc3O2)cc1 [Compound 6a, 7,4’-di-O-octylnaringenin] | > 100 µg/mL | no effect | > 100 µg/mL | no effect |  |
| CCCCCCCOc1ccc([C@@H]2CC(=O)c3c(O)cc(OCCCCCCC)cc3O2)cc1 [Compound 4a, 7,4’-di-O-heptylnaringenin] | > 100 µg/mL | no effect | > 100 µg/mL | no effect |  |
| CCCCCCCCCCCOc1ccc([C@@H]2CC(=NO)c3c(O)cc(OCCCCCCCCCCC)cc3O2)cc1 [Compound 10b, 7,4’-di-O-undecylnaringenin oxime] | > 100 µg/mL |  | 48.2 µg/mL (≈ 80.9 µM) |  |  |
| CCCCCCCCOc1ccc([C@@H]2CC(=NO)c3c(O)cc(OCCCCCCCC)cc3O2)cc1 [Compound 6b, 7,4’-di-O-octylnaringenin oxime] | > 100 µg/mL |  | > 100 µg/mL |  |  |
| CCCCCCCCCCCOc1ccc([C@@H]2CC(=O)c3c(O)cc(OCCCCCCCCCCC)cc3O2)cc1 [Compound 10a, 7,4’-di-O-undecylnaringenin] | > 100 µg/mL | no effect | > 100 µg/mL | no effect | bacterial adhesion disturbed (decrease), E. coli to 3T3-L1 ([2]; regardless of the concentration used): ≈ 2 fold |
| CCCCCCOc1ccc([C@@H]2CC(=O)c3c(O)cc(OCCCCCC)cc3O2)cc1 [Compound 2a, 7,4’-di-O-hexylnaringenin] | > 100 µg/mL | no effect | > 100 µg/mL | no effect |  |
| CCCCCCCCCOc1cc(O)c2c(c1)O[C@H](c1ccc(O)cc1)CC2=O [Compound 7a, 7-O-nonylnaringenin] | 22.2 µg/mL (≈ 55.8 µM) | cytotoxic activity | 46.7 µg/mL (≈ 117 µM) | antiproliferative activity | effect on adhesion of E. faecalis to 3T3-L1 (in words) [1]: often actually limited the attachment |
| CCCCCCCOc1ccc([C@@H]2CC(=NO)c3c(O)cc(OCCCCCCC)cc3O2)cc1 [Compound 4b, 7,4’-di-O-heptylnaringenin oxime] | > 100 µg/mL |  | 43.4 µg/mL (≈ 89.6 µM) |  | adhesion of E. coli to HT-29 higher than in the control ([3]; 25 µg/mL): 17 fold; adhesion of E. coli to HT-29 higher than in the control ([3]; 50 µg/mL): 5 fold; level of adherence of E. coli to HT-29 ([3]; 1–10 µg/mL or 75–100 µg/mL): very low |
| CCCCCCCCOc1cc(O)c2c(c1)O[C@H](c1ccc(O)cc1)CC2=O [Compound 5a, 7-O-octylnaringenin] | 20.1 µg/mL (≈ 52.3 µM) | cytotoxic activity | 38.4 µg/mL (≈ 99.7 µM) | antiproliferative activity |  |
| CCCCCCCCCCCOc1cc(O)c2c(c1)O[C@H](c1ccc(O)cc1)CC2=NO [Compound 9b, 7-O-undecylnaringenin oxime] | > 100 µg/mL |  | > 100 µg/mL |  | effect on adhesion of E. faecalis to 3T3-L1 (in words) [1]: often actually limited the attachment |
